Values after ≈ are worked out from the molar mass of the structure shown. One block for each compound: values may come before it.
Tests used:
Format in all cases: cell-based
[1] = tested on: K. pneumoniae strain MP-548; assay: Broth dilution MIC determination (CLSI) against K. pneumoniae strain MP-548; conditions: Klebsiella pneumoniae, MP548
Protocol: (§1) Minimum inhibitory concentrations (MICs) for macrolides described herein were determined for E. coli strain MP-4, K. pneumoniae strain MP-548, P. aeruginosa strain MP-3, A. baumannii strain MP-15, and S. aureus strain MP-12 using similar test procedures as published in US Pat. Pub. No. 2017/0305953. MIC data is represented as “+++” for values less than or equal to 4 mg/L, “++” for values of greater than or equal to 8 mg/L and less than 32 mg/L, and “+” for values of 32 mg/L or greater. ND indicates no data for a particular compound. CLSI standard procedures for broth dilution MIC determination were used.

S. aureus strain MP-12 = assay: Broth dilution MIC determination (CLSI) against S. aureus strain MP-12; conditions: Staphylococcus aureus, MP12, strain MP-12
Protocol: as §1

[2] = tested on: A. baumannii strain MP-15; assay: Broth dilution MIC determination (CLSI) against A. baumannii strain MP-15; conditions: Acinetobacter baumannii, MP15
Protocol: as §1

[3] = tested on: P. aeruginosa strain MP-3; assay: Broth dilution MIC determination (CLSI) against P. aeruginosa strain MP-3; conditions: Pseudomonas aeruginosa, MP3
Protocol: as §1

E. coli strain MP-4 = assay: Broth dilution MIC determination (CLSI) against E. coli strain MP-4; conditions: Escherichia coli, MP4
Protocol: as §1

MIC [1]: ≥ 32 µg/mL
MIC (S. aureus strain MP-12): ≥ 32 µg/mL
MIC [2]: ≥ 32 µg/mL
MIC [3]: ≥ 32 µg/mL
MIC (E. coli strain MP-4): ≤ 4 µg/mL
SMILES: CC[C@H]1OC(=O)C(C)C(=O)[C@H](C)[C@@H](O[C@@H]2OC(CNCc3ccc(Cl)cc3)CC(N(C)C)C2O)[C@](C)(OC)C[C@@H](C)CN[C@H](C)[C@H]2NC(=O)O[C@@]21C (stereo partly shown) [Compound 36]

MIC [1]: ≥ 32 µg/mL
MIC (S. aureus strain MP-12): ≥ 32 µg/mL
MIC [2]: ≥ 32 µg/mL
MIC [3]: ≥ 32 µg/mL
MIC (E. coli strain MP-4): ≤ 4 µg/mL
SMILES: CC[C@H]1OC(=O)C(C)C(=O)[C@H](C)[C@@H](O[C@@H]2OC(CNCCc3ccc(F)cc3)CC(N(C)C)C2O)[C@](C)(OC)C[C@@H](C)CN[C@H](C)[C@H]2NC(=O)O[C@@]21C (stereo partly shown) [Compound 39]

MIC [1]: ≥ 32 µg/mL
MIC (S. aureus strain MP-12): ≥ 32 µg/mL
MIC [2]: ≥ 32 µg/mL
MIC [3]: ≥ 32 µg/mL
MIC (E. coli strain MP-4): ≤ 4 µg/mL
SMILES: CC[C@H]1OC(=O)C(C)C(=O)[C@H](C)[C@@H](O[C@@H]2OC(CNCc3ccc(OC)cc3)CC(N(C)C)C2O)[C@](C)(OC)C[C@@H](C)CN[C@H](C)[C@H]2NC(=O)O[C@@]21C (stereo partly shown) [Compound 42]

MIC [1]: ≥ 32 µg/mL
MIC (S. aureus strain MP-12): ≥ 32 µg/mL
MIC [2]: ≥ 32 µg/mL
MIC [3]: ≥ 32 µg/mL
MIC (E. coli strain MP-4): ≤ 4 µg/mL
SMILES: CC[C@H]1OC(=O)C(C)C(=O)[C@H](C)[C@@H](O[C@@H]2OC(CNCc3ccc(N(C)C)cc3)CC(N(C)C)C2O)[C@](C)(OC)C[C@@H](C)CN[C@H](C)[C@H]2NC(=O)O[C@@]21C (stereo partly shown) [Compound 44]

MIC [1]: ≥ 32 µg/mL
MIC (S. aureus strain MP-12): 8 to 32 µg/mL (≈ 10.8 to 43.3 µM)
MIC [2]: ≥ 32 µg/mL
MIC [3]: ≥ 32 µg/mL
MIC (E. coli strain MP-4): 8 to 32 µg/mL (≈ 10.8 to 43.3 µM)
SMILES: CC[C@H]1OC(=O)C(C)C(=O)[C@H](C)[C@@H](O[C@@H]2OC(CNc3ccc(Cl)cc3)CC(N(C)C)C2O)[C@](C)(OC)C[C@@H](C)CN[C@H](C)[C@H]2NC(=O)O[C@@]21C (stereo partly shown) [Compound 49]

MIC [1]: ≥ 32 µg/mL
MIC (S. aureus strain MP-12): ≥ 32 µg/mL
MIC [2]: ≥ 32 µg/mL
MIC [3]: ≥ 32 µg/mL
MIC (E. coli strain MP-4): 8 to 32 µg/mL (≈ 10.8 to 43.2 µM)
SMILES: CCCCCCCCNCC1CC(N(C)C)C(O)[C@H](O[C@@H]2[C@@H](C)C(=O)C(C)C(=O)O[C@H](CC)[C@@]3(C)OC(=O)N[C@@H]3[C@@H](C)NC[C@H](C)C[C@@]2(C)OC)O1 (stereo partly shown) [Compound 54]

MIC [1]: ≥ 32 µg/mL
MIC (S. aureus strain MP-12): ≥ 32 µg/mL
MIC [2]: ≥ 32 µg/mL
MIC [3]: ≥ 32 µg/mL
MIC (E. coli strain MP-4): 8 to 32 µg/mL (≈ 10.4 to 41.6 µM)
SMILES: CCCCCCCCCCNCC1CC(N(C)C)C(O)[C@H](O[C@@H]2[C@@H](C)C(=O)C(C)C(=O)O[C@H](CC)[C@@]3(C)OC(=O)N[C@@H]3[C@@H](C)NC[C@H](C)C[C@@]2(C)OC)O1 (stereo partly shown) [Compound 55]

More lines, now with the values behind:

SMILES: CC[C@H]1OC(=O)C(C)C(=O)[C@H](C)[C@@H](O[C@@H]2OC(CNCc3ccc(C(C)(C)C)cc3)CC(N(C)C)C2O)[C@](C)(OC)C[C@@H](C)CN[C@H](C)[C@H]2NC(=O)O[C@@]21C (stereo partly shown) [Compound 37]
MIC [1]: ≥ 32 µg/mL
MIC (S. aureus strain MP-12): ≥ 32 µg/mL
MIC [2]: ≥ 32 µg/mL
MIC [3]: ≥ 32 µg/mL
MIC (E. coli strain MP-4): ≥ 32 µg/mL

SMILES: CC[C@H]1OC(=O)C(C)C(=O)[C@H](C)[C@@H](O[C@@H]2OC(CNCc3ccc(F)cn3)CC(N(C)C)C2O)[C@](C)(OC)C[C@@H](C)CN[C@H](C)[C@H]2NC(=O)O[C@@]21C (stereo partly shown) [Compound 38]
MIC [1]: ≥ 32 µg/mL
MIC (S. aureus strain MP-12): ≥ 32 µg/mL
MIC [2]: ≥ 32 µg/mL
MIC [3]: ≥ 32 µg/mL
MIC (E. coli strain MP-4): ≤ 4 µg/mL

SMILES: CC[C@H]1OC(=O)C(C)C(=O)[C@H](C)[C@@H](O[C@@H]2OC(CNCc3ccc(C#N)cc3)CC(N(C)C)C2O)[C@](C)(OC)C[C@@H](C)CN[C@H](C)[C@H]2NC(=O)O[C@@]21C (stereo partly shown) [Compound 40]
MIC [1]: ≥ 32 µg/mL
MIC (S. aureus strain MP-12): ≥ 32 µg/mL
MIC [2]: ≥ 32 µg/mL
MIC [3]: ≥ 32 µg/mL
MIC (E. coli strain MP-4): ≤ 4 µg/mL

SMILES: CC[C@H]1OC(=O)C(C)C(=O)[C@H](C)[C@@H](O[C@@H]2OC(CNCc3cccc(C#N)c3)CC(N(C)C)C2O)[C@](C)(OC)C[C@@H](C)CN[C@H](C)[C@H]2NC(=O)O[C@@]21C (stereo partly shown) [Compound 41]
MIC [1]: ≥ 32 µg/mL
MIC (S. aureus strain MP-12): ≥ 32 µg/mL
MIC [2]: ≥ 32 µg/mL
MIC [3]: ≥ 32 µg/mL
MIC (E. coli strain MP-4): ≤ 4 µg/mL

SMILES: CC[C@H]1OC(=O)C(C)C(=O)[C@H](C)[C@@H](O[C@@H]2OC(CNCc3cccc(OC)c3)CC(N(C)C)C2O)[C@](C)(OC)C[C@@H](C)CN[C@H](C)[C@H]2NC(=O)O[C@@]21C (stereo partly shown) [Compound 43]
MIC [1]: ≥ 32 µg/mL
MIC (S. aureus strain MP-12): ≥ 32 µg/mL
MIC [2]: ≥ 32 µg/mL
MIC [3]: ≥ 32 µg/mL
MIC (E. coli strain MP-4): ≤ 4 µg/mL

SMILES: CC[C@H]1OC(=O)C(C)C(=O)[C@H](C)[C@@H](O[C@@H]2OC(CNCc3ccc(S(C)(=O)=O)cc3)CC(N(C)C)C2O)[C@](C)(OC)C[C@@H](C)CN[C@H](C)[C@H]2NC(=O)O[C@@]21C (stereo partly shown) [Compound 45]
MIC [1]: ≥ 32 µg/mL
MIC (S. aureus strain MP-12): ≥ 32 µg/mL
MIC [2]: ≥ 32 µg/mL
MIC [3]: ≥ 32 µg/mL
MIC (E. coli strain MP-4): ≥ 32 µg/mL

SMILES: CC[C@H]1OC(=O)C(C)C(=O)[C@H](C)[C@@H](O[C@@H]2OC(CNc3ccc(F)cc3)CC(N(C)C)C2O)[C@](C)(OC)C[C@@H](C)CN[C@H](C)[C@H]2NC(=O)O[C@@]21C (stereo partly shown) [Compound 46]
MIC [1]: 8 to 32 µg/mL (≈ 11.1 to 44.3 µM)
MIC (S. aureus strain MP-12): 8 to 32 µg/mL (≈ 11.1 to 44.3 µM)
MIC [2]: ≥ 32 µg/mL
MIC [3]: ≥ 32 µg/mL
MIC (E. coli strain MP-4): ≤ 4 µg/mL

SMILES: CC[C@H]1OC(=O)C(C)C(=O)[C@H](C)[C@@H](O[C@@H]2OC(CNc3ccccc3F)CC(N(C)C)C2O)[C@](C)(OC)C[C@@H](C)CN[C@H](C)[C@H]2NC(=O)O[C@@]21C (stereo partly shown) [Compound 47]
MIC [1]: 8 to 32 µg/mL (≈ 11.1 to 44.3 µM)
MIC (S. aureus strain MP-12): 8 to 32 µg/mL (≈ 11.1 to 44.3 µM)
MIC [2]: ≥ 32 µg/mL
MIC [3]: ≥ 32 µg/mL
MIC (E. coli strain MP-4): ≤ 4 µg/mL

SMILES: CC[C@H]1OC(=O)C(C)C(=O)[C@H](C)[C@@H](O[C@@H]2OC(CNc3cccc(F)c3)CC(N(C)C)C2O)[C@](C)(OC)C[C@@H](C)CN[C@H](C)[C@H]2NC(=O)O[C@@]21C (stereo partly shown) [Compound 48]
MIC [1]: ≥ 32 µg/mL
MIC (S. aureus strain MP-12): 8 to 32 µg/mL (≈ 11.1 to 44.3 µM)
MIC [2]: ≥ 32 µg/mL
MIC [3]: ≥ 32 µg/mL
MIC (E. coli strain MP-4): 8 to 32 µg/mL (≈ 11.1 to 44.3 µM)

SMILES: CC[C@H]1OC(=O)C(C)C(=O)[C@H](C)[C@@H](O[C@@H]2OC(CNc3ccc(C#N)cc3)CC(N(C)C)C2O)[C@](C)(OC)C[C@@H](C)CN[C@H](C)[C@H]2NC(=O)O[C@@]21C (stereo partly shown) [Compound 50]
MIC [1]: ≥ 32 µg/mL
MIC (S. aureus strain MP-12): ≥ 32 µg/mL
MIC [2]: ≥ 32 µg/mL
MIC [3]: ≥ 32 µg/mL
MIC (E. coli strain MP-4): 8 to 32 µg/mL (≈ 11 to 43.8 µM)

SMILES: CC[C@H]1OC(=O)C(C)C(=O)[C@H](C)[C@@H](O[C@@H]2OC(CNc3ccccn3)CC(N(C)C)C2O)[C@](C)(OC)C[C@@H](C)CN[C@H](C)[C@H]2NC(=O)O[C@@]21C (stereo partly shown) [Compound 51]
MIC [1]: 8 to 32 µg/mL (≈ 11.3 to 45.3 µM)
MIC (S. aureus strain MP-12): ≥ 32 µg/mL
MIC [2]: ≥ 32 µg/mL
MIC [3]: ≥ 32 µg/mL
MIC (E. coli strain MP-4): ≤ 4 µg/mL

SMILES: CC[C@H]1OC(=O)C(C)C(=O)[C@H](C)[C@@H](O[C@@H]2OC(CNc3cccnc3)CC(N(C)C)C2O)[C@](C)(OC)C[C@@H](C)CN[C@H](C)[C@H]2NC(=O)O[C@@]21C (stereo partly shown) [Compound 52]
MIC [1]: 8 to 32 µg/mL (≈ 11.3 to 45.3 µM)
MIC (S. aureus strain MP-12): ≥ 32 µg/mL
MIC [2]: ≥ 32 µg/mL
MIC [3]: ≥ 32 µg/mL
MIC (E. coli strain MP-4): ≤ 4 µg/mL

SMILES: C#CCNCC1CC(N(C)C)C(O)[C@H](O[C@@H]2[C@@H](C)C(=O)C(C)C(=O)O[C@H](CC)[C@@]3(C)OC(=O)N[C@@H]3[C@@H](C)NC[C@H](C)C[C@@]2(C)OC)O1 (stereo partly shown) [Compound 53]
MIC [1]: 8 to 32 µg/mL (≈ 12 to 48 µM)
MIC (S. aureus strain MP-12): ≥ 32 µg/mL
MIC [2]: ≥ 32 µg/mL
MIC [3]: ≥ 32 µg/mL
MIC (E. coli strain MP-4): ≤ 4 µg/mL

SMILES: CC[C@H]1OC(=O)C(C)C(=O)[C@H](C)[C@@H](O[C@@H]2OC(CNCC3COC3)CC(N(C)C)C2O)[C@](C)(OC)C[C@@H](C)CN[C@H](C)[C@H]2NC(=O)O[C@@]21C (stereo partly shown) [Compound 56]
MIC [1]: ≥ 32 µg/mL
MIC (S. aureus strain MP-12): ≥ 32 µg/mL
MIC [2]: ≥ 32 µg/mL
MIC [3]: ≥ 32 µg/mL
MIC (E. coli strain MP-4): 8 to 32 µg/mL (≈ 11.4 to 45.8 µM)

SMILES: CC[C@H]1OC(=O)C(C)C(=O)[C@H](C)[C@@H](O[C@@H]2OC(CO)CC(N(C)C)C2O)[C@](C)(OC)C[C@@H](C)CN[C@H](C)[C@H]2NC(=O)O[C@@]21C (stereo partly shown) [Compound 57]
MIC [1]: ≥ 32 µg/mL
MIC (S. aureus strain MP-12): ≥ 32 µg/mL
MIC [2]: ≥ 32 µg/mL
MIC [3]: ≥ 32 µg/mL
MIC (E. coli strain MP-4): 8 to 32 µg/mL (≈ 12.7 to 50.8 µM)

SMILES: CC[C@H]1OC(=O)[C@@]2(C)CCOC(C)(C[C@@H](C)CN[C@H](C)[C@H]3NC(=O)O[C@@]31C)[C@H](O[C@@H]1OC(CNC3CC3)CC(N(C)C)C1O)[C@@H](C)C2=O (stereo partly shown) [Compound 80]
MIC [1]: ≤ 4 µg/mL
MIC (S. aureus strain MP-12): ≤ 4 µg/mL
MIC [2]: 8 to 32 µg/mL (≈ 11.7 to 47 µM)
MIC [3]: 8 to 32 µg/mL (≈ 11.7 to 47 µM)
MIC (E. coli strain MP-4): ≤ 4 µg/mL
